From a melting point compilation (Tetko et al.; mined from patent text by program, amines drawn as free bases though some values may be those of a salt)

First: OCC1OC(n2c(I)nc3cc(Cl)c(Cl)cc32)C(O)C1O (stereo not given)
Second: O=c1[nH]c2cc(Cl)c(Cl)c(Cn3cncn3)c2[nH]c1=O
The melting point of the first is lower: 180 to 182 °C for the first, > 320 °C for the second.

First: COCOc1ccc(CCNC(=O)/C(C#N)=C/c2cccnc2)cc1
Second: COC(=O)Cc1ccc(Oc2ccc(C#N)cc2)cc1
The melting point of the first is higher: 105 to 106 °C for the first, 58 to 60 °C for the second.

First: CN(C)c1ccc2c(c1)Sc1cc(N(C)C=O)ccc1N2C=O
Second: Cc1ccc2c(c1)C(=O)N(Nc1ccccc1)C2=O
The melting point of the first is lower: 139 to 143 °C for the first, 168 to 170 °C for the second.

First: CC(=O)N1CCc2c(c3ccc(-n4ccc(-c5ccc(C(F)(F)F)nc5)cc4=O)nc3n2C)C1
Second: CC(=O)Oc1ccc(-c2c(CBr)c3ccc(F)cc3oc2=O)c(OC(C)=O)c1
The melting point of the first is higher: 238 to 242 °C for the first, 230 to 231 °C for the second.

First: COC(=O)NCCOC(=O)C(C)Oc1ccc(Oc2cnc3cc(Cl)ccc3n2)cc1 (stereo not given)
Second: CCOC(=O)C(C)Oc1ccc(Oc2cnc3cc(Cl)ccc3n2)cc1F (stereo not given)
The melting point of the first is lower: 103 to 104 °C for the first, 110 °C for the second.

First: CC(C)C[C@H](NC(=O)C12CC3CC(CC(C3)C1)C2)C(=O)NCC(N)=O
Second: COc1cc(C=C2SC(N3CCCC3)=NC2=O)cc(-c2ccc(O)c(C34CC5CC(CC(C5)C3)C4)c2)c1O
The melting point of the first is lower: 123 to 127 °C for the first, 353 to 355 °C for the second.

First: CCOC(=O)c1c(C(F)(F)F)cc(C(F)(F)F)nc1N
Second: O=S(=O)(NCc1ccccc1)c1cccc(-c2cc(-c3nc(-c4ccc(C(F)(F)F)cc4)cc(C(F)(F)F)n3)ccn2)c1
The melting point of the first is lower: 84 to 86 °C for the first, 202 °C for the second.

Compared with `O=C1Cc2cccc3c2N1C(C(F)(F)F)=C(F)S3`, `Nn1cnc2cc(C(F)(F)F)ccc21` is higher in melting point: 128 to 130 °C for the first, 140 to 142 °C for the second.

First: Brc1ccc(O[C@H]2CCNC[C@H]2c2ccccc2)cc1 (relative stereo)
Second: CCOc1ccc(N(Cc2ccccc2)Cc2ccccc2)cc1
The melting point of the first is higher: 113 to 115 °C for the first, 80 to 82 °C for the second.

First: CCn1cc(-c2cnccn2)ccc1=O
Second: CC(O)Cn1cnc2cnc3ccccc3c21 (stereo not given)
The melting point of the first is lower: 120 to 121 °C for the first, 171 °C for the second.

Compared with `CSc1nnc(Sc2ncnc3c(C)csc23)s1`, `Cc1nnc(-c2ccc3occ(-c4ccc(S(C)=O)c(F)c4)c3c2)o1` (stereo not given) is higher in melting point: 163 to 166 °C for the first, 168 to 169 °C for the second.

First: O=C(Nc1nccs1)C(=O)c1cn(Cc2ccc(F)cc2)c2ccccc12
Second: c1ccc(Nc2ccc3nnn(Cc4ccc5ncccc5c4)c3n2)cc1
The melting point of the first is lower: 233 to 237 °C for the first, 237 to 239 °C for the second.

Compared with `Cc1ccc(NC(=O)c2c(Cl)cccc2Cl)c2nccc(Cl)c12`, `CNC(=O)c1cccc(C=NNc2ccc(C)cc2)c1O` is lower in melting point: 258 to 260 °C for the first, 108 to 125 °C for the second.

First: N#Cc1cc(Cl)ccc1Oc1cc(N2CCOCC2)c(F)cc1OCc1ccccc1
Second: Cc1nc(N)nc(N)c1N1CCN(Cc2ccccc2)CC1
The melting point of the first is lower: 134 to 135 °C for the first, 209 to 210 °C for the second.

Compared with `CCC1Nc2c(cc(C)nc2C)N1c1ccc(CCNC(=O)NS(=O)(=O)c2ccc(C)cc2)cc1` (stereo not given), `COc1cc(C)ccc1S(=O)(=O)NC(=O)C(c1cc(OC)c2c(c1)OCO2)c1cn(C)c2cc(CO)ccc12` (stereo not given) is higher in melting point: 143 °C for the first, 145 to 147 °C for the second.

Compared with `CCCCCCCCCCCCCCSCc1ccc(C(C)=O)o1`, `CCCCCCCCCCCCCCCCOCCO` is lower in melting point: 55 to 57 °C for the first, 42 to 44 °C for the second.

Compared with `O=C(O)[C@@H](Cc1ccccc1)NS(=O)(=O)c1ccc2ccccc2c1`, `Cn1c(-c2cccc(-c3cc4ccccc4n3C)c2)cc2ccccc21` is higher in melting point: 146 °C for the first, 150 °C for the second.

First: c1ccc(CSc2nccn2-c2ccccn2)cc1
Second: CN1c2ccccc2C(c2ccccc2Br)=Nc2cccnc21
The melting point of the first is lower: 76 to 77 °C for the first, 139 to 140 °C for the second.

Compared with `CSCCC(=N)NS(N)(=O)=O`, `CCOC(=O)Cc1ccc(N[C@@H](CCC(N)=O)C(=O)O)cc1` is higher in melting point: 88 to 91 °C for the first, 180 °C for the second.

First: O=C(O)C1(c2ccccc2)CCCCC1
Second: NCc1ccccc1CC(=O)O
The melting point of the first is lower: 118 to 121 °C for the first, 151 to 155 °C for the second.

Compared with `CC(C)(C)OC(=O)NC1CCN(CC23CC(c4ccccc42)c2ccccc23)CC1`, `O=[N+]([O-])c1ccc(C(O)C(CO)N2CCC(Cc3ccccc3)CC2)cc1` (stereo not given) is lower in melting point: 155 to 160 °C for the first, 122 to 124 °C for the second.

First: CC(=O)N1CCN(CCSc2ccnc(CSc3nc4ccccc4[nH]3)c2C)CC1
Second: CCc1nc(C2CC2)c(C(=O)O)n1Cc1ccc2oc(-c3ccccc3-c3nnn[nH]3)c(Br)c2c1
The melting point of the first is lower: 129 to 131 °C for the first, 198 °C for the second.

First: COc1ccc2c(c1)CCC(=C(O)C(F)F)C2=O
Second: O=C1C(=O)N2CCCc3cc(Cl)cc1c32
The melting point of the first is lower: 52 to 54 °C for the first, 188 to 189 °C for the second.

First: Cc1cccc(C)c1N(CCCC(=O)N[C@@H](C)C(=O)O)C(=O)c1ccc(Cl)cc1
Second: CCCCCCCCC(=O)NCc1ccc(C(=O)O)cc1
The melting point of the first is lower: 159 to 161 °C for the first, 178 to 180 °C for the second.

First: CCCCc1nc2cc(-c3ccccc3)cc(C(=O)OC)c2n1Cc1ccccc1Cl
Second: Cc1cc2c(cc1C)C1(CO2)C(=O)N(Cc2ccccn2)c2ccccc21 (stereo not given)
The melting point of the first is lower: 103 to 105 °C for the first, 165 to 168 °C for the second.

`CC1(C)C(=O)Nc2cc3[nH]c(O)nc3cc21` and `CCOc1cc2c(cc1OC)Cc1c([nH]cnc1=O)N2` cannot be ordered by melting point: > 300 °C for the first, 318 to 320 °C for the second.

First: O=[N+]([O-])c1ccc(SCCCCl)cc1
Second: O=[N+]([O-])c1ccc(-n2cccc2)c(Cl)c1
The melting point of the first is lower: 50 to 52 °C for the first, 54 to 55 °C for the second.

Compared with `O=[N+]([O-])c1cnccc1NCc1ccccc1`, `NC(=O)CNC(=O)COC[C@@H]1CCCN1C(=O)OCc1ccccc1` is higher in melting point: 100 to 104 °C for the first, 110 to 111 °C for the second.

Compared with `CCCc1nc2c(N)nc3cc(OCCOCCNS(C)(=O)=O)ccc3c2s1`, `CCCC1=C(C(=O)OCC)C(c2cc(OC)ccc2OC)c2c[nH]nc2N1` (stereo not given) is higher in melting point: 134 to 137 °C for the first, 169 to 170 °C for the second.

Compared with `CCCc1c(OCCCCCCc2cccc(OCCCC(C)(C)C(=O)O)c2CCC(=O)O)ccc2c1OCCC2=O`, `CC(C)c1ccc2c(c1)C(=O)N(C)C(c1ccc(C(C)(C)C)cc1)C2C(=O)O` (stereo not given) is higher in melting point: 85 to 87 °C for the first, 204 to 207 °C for the second.

First: CSc1c(O)ccc2c1[nH]c1ccccc12
Second: Oc1cccc(-c2nc3cccc(CBr)c3o2)c1
The melting point of the first is lower: 137 to 138 °C for the first, 225 to 228 °C for the second.

Compared with `CCOc1noc2c1CN(C(=O)OC)CC2`, `CC(C)S(=O)(=O)c1cnc2c(c1)nc(CC(C)(C)C)n2CC1(O)CCOCC1` is higher in melting point: 95 to 98 °C for the first, 179 °C for the second.

First: O=c1[nH]c2ncc(-c3ccc(-c4nc[nH]n4)nc3)nc2n1CC1CCOCC1
Second: Cn1cc2c(ncn3nc(-c4ccco4)nc23)n1
The melting point of the first is higher: 353 to 356 °C for the first, 155 to 156 °C for the second.

First: CN(C)C=NC(=O)C=Cc1ccccc1
Second: CN1c2ccccc2NC(=S)c2cscc21
The melting point of the first is lower: 91 to 93 °C for the first, 203 to 204 °C for the second.

First: CC(=O)OC1CCC2C3CCC4=CC(=O)C=C(C)C4(C)C3CCC12C (stereo not given)
Second: COC(=O)C1CCC2C3CCC4CC(O)C(OC)CC4(C)C3C(NC3CCCCC3)CC12C (stereo not given)
The melting point of the first is higher: 144 °C for the first, 141 to 143 °C for the second.

First: Cc1nc2c(s1)CC(=O)CC2
Second: C[C@H]1CCCC(C)(C)[C@@H]1C(=O)c1ccc(C(F)(F)F)cc1
The melting point of the first is higher: 95 to 96 °C for the first, 16 to 20 °C for the second.

Compared with `CC1(C)CC(SCc2c(C(F)(F)F)nn(C(C)(C)C)c2Cl)=NO1`, `CC(C)(C)COC(=O)N1CC2CC(CN(CC(O)COc3ccc(C#N)cc3)C2)C1` (stereo not given) is higher in melting point: 79 to 81 °C for the first, 146 to 147 °C for the second.

`O=C(O)C(Cl)=C(Cl)C(O)=NCCCc1ccc(Cl)cc1` gave a melting point of 72 to 73 °C.
